How the values were obtained:
[1] = tested on: HEP 3B cells; assay: MTT cell proliferation assay; assay type: cell-based; details: Homo sapiens, Hep3B; HEP 3B cells; 72-hour MTT; read-out: HEP 3B MTT IC50
[2] = tested on: HL-60 cells; assay: MTT cell proliferation assay; assay type: cell-based; details: Homo sapiens; HL-60 cells; 72-hour MTT; read-out: HL-60 MTT IC50
[3] = tested on: Hep G2 cells; assay: MTT cell proliferation assay; assay type: cell-based; details: Homo sapiens, HepG2; Hep G2 cells; 72-hour MTT; read-out: Hep G2 MTT IC50
[4] = tested on: RPMI8226 cells; assay: MTT cell proliferation assay; assay type: cell-based; details: Homo sapiens, RPMI-8226; RPMI8226 cells; 72-hour MTT; read-out: RPMI8226 MTT IC50
[5] = tested on: PAK4 signalling in NHDF cells; assay: Western blots of PAK4 signalling in normal cells (NHDF); assay type: cell-based, human; details: NHDF normal cell line; 72-hour treatment, increasing concentrations; Western blot
Procedure: (§1) Normal human dermal fibroblasts (NHDF) and normal lung cells (IMR-90) were treated with Compound 585 for 72 hours, at which time the cells were lysed in RIPA buffer. The lysates were run on SDS-PAGE and Western blots of phospho-PAK4, PAK4, phospho-cofilin, cofilin, phospho-β-catenin, β-catenin, PARP and caspase-3 were performed.

[6] = tested on: PAK4 signalling in IMR-90 cells; assay: Western blots of PAK4 signalling in normal cells (IMR-90); assay type: cell-based; details: IMR-90 normal cell line; 72-hour treatment, increasing concentrations; Western blot
Procedure: as §1

[7] = tested on: U2OS cells; assay: Staining of β-catenin, cofilin and F-actin in fixed U2OS cells; assay type: cell-based, human; details: 1 μM, 48 hours
Procedure: U2OS cells were grown on coverslips and treated with DMSO or 1 μM Compound 585 for 48 hours, at which time the cells were fixed and stained. The cells were labeled with phospho- or total β-catenin antibodies; phospho- or total cofilin antibodies; or ALEXA-FLUORO 488 phalloidin. Both phospho- and total β-catenin were reduced by treatment with Compound 585. Both phospho- and total cofilin were reduced by treatment with Compound 585. ALEXA-FLUORO 488 phalloidin was used to stain F-actin.

[8] = tested on: U2OS cells; assay: BrdU incorporation and cell cycle analysis by flow cytometry in U2OS cells; assay type: cell-based, human; details: 1 μM, BrdU/7-AAD flow cytometry
Procedure: U2OS cells were treated with DMSO or 1 μM Compound 585 for one, two or three days. At each time point, cells were treated with 10 μM BrdU for 2 hours, and then collected by trypsinization. Cells were subsequently washed, fixed and stained for BrdU and total DNA (7-AAD). BrdU incorporation and cell cycle analysis was performed using flow cytometry on a BD Fortessa Analyzer. Data was then analyzed using FCS Express 4 software.

[9] = tested on: Hep 3B xenografts; assay: Hep3B hepatocellular carcinoma xenograft in SCID mice; assay type: in vivo
Procedure: The effects of Compound 585 were evaluated on tumor growth using a Hep3B hepatocellular carcinoma xenograft model in SCID mice. Hep 3B (ATCC […]) hepatocellular carcinoma cells were obtained from ATCC. These cells were grown in DMEM medium supplemented with 10% fetal bovine serum and 1% penicillin and streptomycin. Cells were sub-cultured by dilution at a ratio of 1:4. Hep3B cells were harvested by centrifugation and counted using a hemocytometer. Cells were resuspended in PBS at a 5×10^7 cells per mL. Cells were placed on ice, then mixed with an equal volume of Matrigel™ (BD Biosciences CB-40234). This mixture was kept on ice and injected into the left flank of mice in a volume of 0.2 mL, equivalent to 5×10^6 cells per mouse. Thirty-two (32) SCID mice were inoculated subcutaneously in the left flank with 5×10^6 Hep 3B cells. Treatment was initiated when the tumors reached a mean volume of 103.7 mm3 (standard deviation±30 mm^3, range 17-183 mm^3). Mice were allocated to four (4) groups of eight (8) mice such that mean tumor volume in each group was within the range of 95 to 104 mm^3. Mice were treated with vehicle, standard of care control (doxorubicin), or Compound 585. With the exception of doxorubicin (which was given IP), all compounds were given by oral gavage. […] Animal weights and conditions were recorded daily, and tumors were measured on Mondays, Wednesdays and Fridays.

SMILES: Nc1ccc(/C=C/C(=O)NCc2cc3cc(-c4ccc(C(=O)N5CCC(F)(F)CC5)cn4)cc(C(F)(F)F)c3o2)cn1 [Compound 585, (E)-3-(6-aminopyridin-3-yl)-N-((5-(5-(4,4-difluoropiperidine-1-carbonyl)pyridin-2-yl)-7-(trifluoromethyl)benzofuran-2-yl)methyl)acrylamide]
- IC50 [1]: 70 nM
- IC50 [2]: 210 nM
- IC50 [3]: 160 nM
- IC50 [4]: 150 nM
- effect on PAK4 signalling (phospho-PAK4, PAK4, phospho-cofilin, cofilin, phospho-β-catenin, β-catenin, PARP, caspase 3) [5]: little to no effect
- effect on PAK4 signalling (phospho-PAK4, PAK4, phospho-cofilin, cofilin, phospho-β-catenin, β-catenin, PARP, caspase 3) [6]: little to no effect
- stress fiber formation (F-actin, phalloidin) [7]: increase in stress fiber formation
- phospho- and total cofilin ([7]; antibody staining): reduced
- phospho- and total β-catenin ([7]; antibody staining): reduced
- cell cycle changes: Sub-G1 phase [8]: started to appear around 48-72 hours
- cell cycle changes: S phase and G2 phase ([8]; at 48-72 hours): loss of S phase and increase in G2 phase
- toxicity (side effects, weight loss) ([9]; Hep 3B xenograft model, minimal or no side effects or weight loss up to 200 mg/kg daily dose): without major toxicity
- mean tumor volume of Hep 3B xenografts ([9]; SCID mice, 20 or 60 mg/kg PO daily): tumor growth inhibition

Source: patent US12331040B2 (Karyopharm Therapeutics Inc., priority 2013, dated 2025)
